From PubChem BioAssay (NCI)
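These data come from cells grown in 96-well plates and exposed to compound for 48 hours at five concentrations. Abbreviation: GI50, concentration required for 50% inhibition of growth. TGI denotes the concentration required for complete inhibition of growth.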

Columns and labels:
Experiment in all cases: growth of human tumour cells (NCI), 48 h
786-0 renal = test system: 786-0 renal
A498 renal = test system: A498 renal
A549 NSCLC = test system: A549 NSCLC
ACHN renal = test system: ACHN renal
BT-549 breast = test system: BT-549 breast
CAKI-1 renal = test system: CAKI-1 renal
CCRF-CEM leukemia = test system: CCRF-CEM leukemia
COLO 205 colon = test system: COLO 205 colon
DU-145 prostate = test system: DU-145 prostate
EKVX NSCLC = test system: EKVX NSCLC
HCC-2998 colon = test system: HCC-2998 colon
HCT-116 colon = test system: HCT-116 colon
HCT-15 colon = test system: HCT-15 colon
HL-60(TB) leukemia = test system: HL-60(TB) leukemia
HOP-62 NSCLC = test system: HOP-62 NSCLC
HOP-92 NSCLC = test system: HOP-92 NSCLC
HS 578T breast = test system: HS 578T breast
HT29 colon = test system: HT29 colon
IGROV1 ovarian = test system: IGROV1 ovarian
K-562 leukemia = test system: K-562 leukemia
KM12 colon = test system: KM12 colon
LOX IMVI melanoma = test system: LOX IMVI melanoma
M14 melanoma = test system: M14 melanoma
MALME-3M melanoma = test system: MALME-3M melanoma
MCF7 breast = test system: MCF7 breast
MDA-MB-231 breast = test system: MDA-MB-231 breast
MDA-MB-435 = test system: MDA-MB-435
MOLT-4 leukemia = test system: MOLT-4 leukemia
NCI-H226 lung = test system: NCI-H226 lung
NCI-H23 lung = test system: NCI-H23 lung
NCI-H460 lung = test system: NCI-H460 lung
NCI-H522 lung = test system: NCI-H522 lung
NCI/ADR-RES ovarian = test system: NCI/ADR-RES ovarian
OVCAR-3 ovarian = test system: OVCAR-3 ovarian
OVCAR-4 ovarian = test system: OVCAR-4 ovarian
OVCAR-5 ovarian = test system: OVCAR-5 ovarian
OVCAR-8 ovarian = test system: OVCAR-8 ovarian
PC-3 prostate = test system: PC-3 prostate
RPMI-8226 leukemia = test system: RPMI-8226 leukemia
RXF 393 renal = test system: RXF 393 renal
SF-268 CNS = test system: SF-268 CNS
SF-295 CNS = test system: SF-295 CNS
SF-539 CNS = test system: SF-539 CNS
SK-MEL-2 melanoma = test system: SK-MEL-2 melanoma
SK-MEL-28 melanoma = test system: SK-MEL-28 melanoma
SK-MEL-5 melanoma = test system: SK-MEL-5 melanoma
SK-OV-3 ovarian = test system: SK-OV-3 ovarian
SN12C renal = test system: SN12C renal
SNB-19 CNS = test system: SNB-19 CNS
SNB-75 CNS = test system: SNB-75 CNS
SW-620 colon = test system: SW-620 colon
T-47D breast = test system: T-47D breast
TK-10 renal = test system: TK-10 renal
U251 CNS = test system: U251 CNS
UACC-257 melanoma = test system: UACC-257 melanoma
UACC-62 melanoma = test system: UACC-62 melanoma
UO-31 renal = test system: UO-31 renal

CCn1c2ccccc2c2cc(/C=C(/C#N)C(N)=S)ccc21 was tested. Which GI50 (786-0 renal) did it give?
Its GI50 is 16.1 µM.

What about the TGI (786-0 renal) of the same compound?
The TGI was 39.4 µM.

What about the GI50 (A498 renal) of the same compound?
The GI50 was 0.026 µM.

What about the TGI (A498 renal) of the same compound?
Its TGI is 0.115 µM.

And the GI50 (A549 NSCLC)?
Its GI50 is 17.5 µM.

What about the TGI (A549 NSCLC) of the same compound?
Its TGI is greater than 87.4 µM.

What about the GI50 (ACHN renal) of the same compound?
The GI50 was 19.6 µM.

What about the TGI (ACHN renal) of the same compound?
Its TGI is 64 µM.

What about the GI50 (BT-549 breast) of the same compound?
Its GI50 is 18.6 µM.

What about the TGI (BT-549 breast) of the same compound?
Its TGI is 36.6 µM.

And the GI50 (CAKI-1 renal)?
Its GI50 is 1.12 µM.

What about the TGI (CAKI-1 renal) of the same compound?
Its TGI is greater than 35.4 µM.

And the GI50 (CCRF-CEM leukemia)?
The GI50 was 23.4 µM.

What about the TGI (CCRF-CEM leukemia) of the same compound?
Its TGI is greater than 100 µM.

And the GI50 (COLO 205 colon)?
The GI50 was 13.2 µM.

And the TGI (COLO 205 colon)?
The TGI was greater than 45.7 µM.

What about the GI50 (DU-145 prostate) of the same compound?
Its GI50 is 16.1 µM.

What about the TGI (DU-145 prostate) of the same compound?
Its TGI is 63.6 µM.

What about the GI50 (EKVX NSCLC) of the same compound?
The GI50 was 17.7 µM.

What about the TGI (EKVX NSCLC) of the same compound?
Its TGI is greater than 58.4 µM.

And the GI50 (HCC-2998 colon)?
The GI50 was 2.88 µM.

What about the TGI (HCC-2998 colon) of the same compound?
The TGI was 9 µM.

What about the GI50 (HCT-116 colon) of the same compound?
Its GI50 is 5.79 µM.

And the TGI (HCT-116 colon)?
The TGI was 20.9 µM.

What about the GI50 (HCT-15 colon) of the same compound?
Its GI50 is 18.7 µM.

And the TGI (HCT-15 colon)?
The TGI was 51.6 µM.

And the GI50 (HL-60(TB) leukemia)?
The GI50 was 74.4 µM.

What about the TGI (HL-60(TB) leukemia) of the same compound?
The TGI was greater than 100 µM.

What about the GI50 (HOP-62 NSCLC) of the same compound?
Its GI50 is 1.21 µM.

And the TGI (HOP-62 NSCLC)?
The TGI was 17.7 µM.

What about the GI50 (HOP-92 NSCLC) of the same compound?
Its GI50 is 14.6 µM.

What about the TGI (HOP-92 NSCLC) of the same compound?
Its TGI is 46.9 µM.

What about the GI50 (HS 578T breast) of the same compound?
Its GI50 is 2.21 µM.

And the TGI (HS 578T breast)?
The TGI was 9.29 µM.

And the GI50 (HT29 colon)?
Its GI50 is 10.9 µM.

What about the TGI (HT29 colon) of the same compound?
Its TGI is greater than 42.7 µM.

What about the GI50 (IGROV1 ovarian) of the same compound?
Its GI50 is 0.619 µM.

What about the TGI (IGROV1 ovarian) of the same compound?
The TGI was 23.2 µM.

And the GI50 (K-562 leukemia)?
Its GI50 is 12.8 µM.

What about the TGI (K-562 leukemia) of the same compound?
The TGI was greater than 100 µM.

What about the GI50 (KM12 colon) of the same compound?
Its GI50 is 15.2 µM.

And the TGI (KM12 colon)?
The TGI was 38.5 µM.

What about the GI50 (LOX IMVI melanoma) of the same compound?
Its GI50 is 13 µM.

And the TGI (LOX IMVI melanoma)?
Its TGI is 26.1 µM.

What about the GI50 (M14 melanoma) of the same compound?
Its GI50 is 18.2 µM.

And the TGI (M14 melanoma)?
The TGI was 38.8 µM.

What about the GI50 (MALME-3M melanoma) of the same compound?
The GI50 was 6.19 µM.

And the TGI (MALME-3M melanoma)?
Its TGI is 48.5 µM.

What about the GI50 (MCF7 breast) of the same compound?
The GI50 was 0.271 µM.

And the TGI (MCF7 breast)?
The TGI was 17.8 µM.

And the GI50 (MDA-MB-231 breast)?
Its GI50 is 12.1 µM.

What about the TGI (MDA-MB-231 breast) of the same compound?
Its TGI is 30.8 µM.

What about the GI50 (MDA-MB-435) of the same compound?
The GI50 was 6.06 µM.

What about the TGI (MDA-MB-435) of the same compound?
Its TGI is 29.6 µM.

And the GI50 (MOLT-4 leukemia)?
Its GI50 is 12.5 µM.

What about the TGI (MOLT-4 leukemia) of the same compound?
The TGI was 58.6 µM.

And the TGI (NCI-H226 lung)?
Its TGI is 0.0236 µM.

And the GI50 (NCI-H23 lung)?
The GI50 was 14.8 µM.

What about the TGI (NCI-H23 lung) of the same compound?
Its TGI is 35.4 µM.

What about the GI50 (NCI-H460 lung) of the same compound?
The GI50 was 0.443 µM.

What about the TGI (NCI-H460 lung) of the same compound?
The TGI was 12.2 µM.

And the GI50 (NCI-H522 lung)?
Its GI50 is 26.9 µM.

What about the TGI (NCI-H522 lung) of the same compound?
The TGI was greater than 68.4 µM.

And the GI50 (NCI/ADR-RES ovarian)?
The GI50 was 18 µM.

And the TGI (NCI/ADR-RES ovarian)?
Its TGI is 38.5 µM.

What about the GI50 (OVCAR-3 ovarian) of the same compound?
The GI50 was 1.73 µM.

And the TGI (OVCAR-3 ovarian)?
The TGI was 18.2 µM.

And the GI50 (OVCAR-4 ovarian)?
The GI50 was 1.43 µM.

And the TGI (OVCAR-4 ovarian)?
Its TGI is 9.92 µM.

What about the GI50 (OVCAR-5 ovarian) of the same compound?
The GI50 was 0.0581 µM.

And the TGI (OVCAR-5 ovarian)?
Its TGI is 0.57 µM.

What about the GI50 (OVCAR-8 ovarian) of the same compound?
The GI50 was 20.5 µM.

What about the TGI (OVCAR-8 ovarian) of the same compound?
Its TGI is 56.4 µM.

And the GI50 (PC-3 prostate)?
The GI50 was 18.3 µM.

And the TGI (PC-3 prostate)?
Its TGI is greater than 59.4 µM.

And the GI50 (RPMI-8226 leukemia)?
The GI50 was 35.4 µM.

And the TGI (RPMI-8226 leukemia)?
The TGI was greater than 100 µM.

What about the GI50 (RXF 393 renal) of the same compound?
The GI50 was 16.5 µM.

And the TGI (RXF 393 renal)?
Its TGI is 39 µM.

What about the GI50 (SF-268 CNS) of the same compound?
Its GI50 is 16.3 µM.

What about the TGI (SF-268 CNS) of the same compound?
Its TGI is 40.6 µM.

What about the GI50 (SF-295 CNS) of the same compound?
Its GI50 is 4.64 µM.

And the TGI (SF-295 CNS)?
Its TGI is 24.2 µM.

And the GI50 (SF-539 CNS)?
The GI50 was 14.2 µM.

What about the TGI (SF-539 CNS) of the same compound?
The TGI was 27.4 µM.

And the GI50 (SK-MEL-2 melanoma)?
Its GI50 is 31.3 µM.

And the TGI (SK-MEL-2 melanoma)?
Its TGI is greater than 100 µM.

And the GI50 (SK-MEL-28 melanoma)?
Its GI50 is 17.7 µM.

And the TGI (SK-MEL-28 melanoma)?
The TGI was 47.2 µM.

What about the GI50 (SK-MEL-5 melanoma) of the same compound?
Its GI50 is 7.26 µM.

What about the TGI (SK-MEL-5 melanoma) of the same compound?
The TGI was 20.2 µM.

And the GI50 (SK-OV-3 ovarian)?
Its GI50 is 36.7 µM.

What about the TGI (SK-OV-3 ovarian) of the same compound?
The TGI was greater than 62.1 µM.

What about the GI50 (SN12C renal) of the same compound?
Its GI50 is 11.8 µM.

And the TGI (SN12C renal)?
The TGI was 29.9 µM.

And the GI50 (SNB-19 CNS)?
Its GI50 is 35.2 µM.

And the TGI (SNB-19 CNS)?
Its TGI is greater than 75.6 µM.

And the GI50 (SNB-75 CNS)?
The GI50 was 18.8 µM.

And the TGI (SNB-75 CNS)?
Its TGI is 46.1 µM.

And the GI50 (SW-620 colon)?
Its GI50 is 9.06 µM.

And the TGI (SW-620 colon)?
The TGI was 25.1 µM.

What about the GI50 (T-47D breast) of the same compound?
The GI50 was 4.84 µM.

And the GI50 (TK-10 renal)?
Its GI50 is 0.216 µM.

What about the TGI (TK-10 renal) of the same compound?
Its TGI is 1.82 µM.

And the GI50 (U251 CNS)?
Its GI50 is 4.85 µM.

What about the TGI (U251 CNS) of the same compound?
The TGI was 23.5 µM.

And the GI50 (UACC-257 melanoma)?
Its GI50 is 3.11 µM.

What about the TGI (UACC-257 melanoma) of the same compound?
Its TGI is greater than 21.4 µM.

And the GI50 (UACC-62 melanoma)?
Its GI50 is 0.219 µM.

And the TGI (UACC-62 melanoma)?
The TGI was 1.51 µM.

What about the GI50 (UO-31 renal) of the same compound?
The GI50 was 20.4 µM.

What about the TGI (UO-31 renal) of the same compound?
Its TGI is greater than 60.6 µM.
